From BigSolDB 2.1

Conditions: 298 K

SMILES	solubility (mole fraction) (in n-hexane)	solubility (mole fraction) (in n-octanol)	solubility (mole fraction) (in water)
O=S(=O)(Nc1ccc(Cl)cc1)c1ccccc1	1.37e-06	0.0421	1.68e-06
Cc1ccc(Cl)cc1NS(=O)(=O)c1ccc(N)cc1	2.94e-06	0.00188	1.61e-06
Cc1cc(Cl)ccc1NS(=O)(=O)c1ccc(N)cc1		0.00489	7.72e-07
Cc1cc(N)ccc1S(=O)(=O)Nc1ccccc1[N+](=O)[O-]	3.22e-06	0.000198	5.18e-07
Nc1ccc(S(=O)(=O)Nc2cccc(Cl)c2Cl)cc1	6.05e-06	0.000681	3.32e-07
O=S(=O)(Nc1ccccc1Cl)c1ccccc1	7.73e-06	0.0036	8.69e-07
CN(C)S(=O)(=O)c1ccc(N)cc1	2.9e-06	0.000873	3.21e-05
O=[N+]([O-])c1ccc(S(=O)(=O)Nc2nccs2)cc1			4.23e-06
CNS(=O)(=O)c1ccc(N)cc1		0.00486	0.00103
Nc1ccc(S(=O)(=O)Nc2ccc(Cl)cc2)c(Cl)c1		0.00248	4.72e-07
Nc1ccc(S(=O)(=O)Nc2ccc([N+](=O)[O-])cc2)cc1		0.003	3.65e-06
O=[N+]([O-])c1ccccc1NS(=O)(=O)c1ccccc1		0.0106	1.78e-06
CCOc1ccc(NS(=O)(=O)c2ccc([N+](=O)[O-])cc2)cc1	3.95e-06	0.00125	3.41e-07
Cc1cc(N)ccc1S(=O)(=O)Nc1ccc(Cl)cc1	4.59e-06	0.00356	6.71e-07
Nc1ccc(S(=O)(=O)Nc2ccc(I)cc2)cc1		0.00163	5.44e-07
Cc1ccc(NS(=O)(=O)c2ccc([N+](=O)[O-])cc2)nc1		3.38e-05	1.13e-06
Cc1ccc(NS(=O)(=O)c2ccc(N)cc2)c(Cl)c1	2.43e-06	0.00158	7.65e-07
CCN(CC)S(=O)(=O)c1ccc(N)cc1	2.41e-05	0.0108	4.27e-05

SMILES	solubility (mole fraction) (in n-hexane)	solubility (mole fraction) (in n-octanol)	solubility (mole fraction) (in water)
Nc1ccc(S(=O)(=O)Nc2ccc(Cl)c(Cl)c2)cc1		0.000422	2.05e-07
O=S(=O)(Nc1cccnc1Cl)c1ccccc1	2.63e-05	0.00151	
Cc1cc(N)ccc1S(=O)(=O)Nc1ccccc1Cl	1.08e-06	0.000115	1.57e-07
N#Cc1ccc(NS(=O)(=O)c2ccc(N)cc2)cc1		0.00129	5.47e-06
Nc1ccc(S(=O)(=O)Nc2cc(Cl)ccc2Cl)cc1	4.69e-06	0.000529	7.25e-07
O=S(=O)(Nc1ccccc1)c1ccccc1	0.000101	0.0335	8.49e-06
Nc1ccc(S(=O)(=O)Nc2ccccc2Cl)c(Cl)c1		7.4e-05	1.19e-07
Nc1ccc(S(=O)(=O)N(c2ccccc2)c2ccccc2)cc1	5.4e-06	0.000551	4.84e-07
O=[N+]([O-])c1ccc(NS(=O)(=O)c2ccccc2)cc1	3.16e-06	0.0116	2.11e-06
CCc1ccc(NS(=O)(=O)c2ccc(N)cc2)cc1	2.77e-06	0.00104	5.09e-07
COc1ccc(NS(=O)(=O)c2ccc(N)cc2)cc1	2.24e-06	0.000233	1.32e-06
Nc1ccc(S(=O)(=O)Nc2cc(Cl)c(Cl)cc2Cl)cc1	6.32e-06	0.00109	2.51e-07
CCOC(=O)c1ccc(NS(=O)(=O)c2ccccc2)nc1		0.0006	1.24e-06
Nc1ccc(S(=O)(=O)Nc2ccc([N+](=O)[O-])cc2Br)cc1		0.000308	3.01e-07
Nc1ccc(S(=O)(=O)Nc2ccc(Cl)cc2)cc1		0.00145	1.19e-06
Cc1ccc(NS(=O)(=O)c2ccc(N)cc2)cc1Cl		0.000552	1.53e-07
O=S(=O)(Nc1ncccc1Cl)c1ccccc1	6.58e-05	0.00282	1.17e-05
